Where two headings read alike, the source gives them in different places.
Tests used:
PAR2 = target: T1, PAR2 (Homo sapiens, UniProt P55085); assay: Intracellular calcium concentration measurement (SLIGKV-NH2-induced calcium change, Fluo-8, FDSS/μCELL); format: cell-based
T1 construct: HEK293 cell lines derived from human embryonic kidney cultured in a MEM culture medium; endogenous in cells; host or cells: HEK293
T1 sequence (P55085 26-397): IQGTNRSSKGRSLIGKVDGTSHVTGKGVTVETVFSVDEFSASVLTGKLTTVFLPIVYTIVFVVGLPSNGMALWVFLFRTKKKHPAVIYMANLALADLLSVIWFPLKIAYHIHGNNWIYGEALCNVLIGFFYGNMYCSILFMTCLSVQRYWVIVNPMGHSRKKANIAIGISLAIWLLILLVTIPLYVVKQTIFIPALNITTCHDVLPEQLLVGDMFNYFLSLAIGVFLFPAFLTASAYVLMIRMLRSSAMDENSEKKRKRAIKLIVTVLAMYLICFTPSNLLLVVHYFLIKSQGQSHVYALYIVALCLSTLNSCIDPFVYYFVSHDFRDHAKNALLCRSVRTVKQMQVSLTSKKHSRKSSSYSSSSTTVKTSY

ICR mice = assay: Scratching behavior test with PAR2 agonist peptide (SLIGRL-NH2) administration; format: in vivo, mouse; conditions: 40 μL of 6% test compound solution applied to back, SLIGRL-NH2 intradermal, scratching counted 10 to 40 minutes after
Method: Test Example 2: Scratching Behavior Test with PAR2 Agonist Peptide Administration
Magnets for measuring scratching behavior(Neuroscience, Inc.) were implanted in both legs of 6- to 7-week-old female ICR mice under 3.5% isoflurane inhalation anesthesia.
Under isoflurane inhalation anesthesia, the upper back was shaved about 2×3 cm with a shaver and 40 μL of a 6% of test compound solution was applied with a micropipette. The animals were then kept in a dedicated cage for 1 hour. […] Then, under isoflurane inhalation anesthesia, 10 μL of a 25 mg/mL solution of PAR2 agonist peptide (SLIGRL-NH2) in distilled water was administered intradermally by using a needle attached to a Hamilton syringe. The animals were returned to the cage and the scratching frequency was measured by the device for 30 minutes from 10 to 40 minutes after the administration.
The inhibitory effect of the test compounds on scratching behavior was calculated as a percentage of the number of scratches in the solvent-applied and PAR2 agonist peptide-treated group, and is shown in Table 4 as a percentage.

NC/Nga mice = assay: Scratching behavior test using atopic dermatitis model (SDS and mite antigen ointment sensitization); conditions: 60 μL applied, 7 hours after application
[1] = HEK293 cells, SLIGKV-NH2 10 μM-induced intracellular calcium change, read-out: IC50
[2] = assessed concentration 6%, solvent 100% ethanol
[3] = assessed concentration 1%, solvent 100% ethanol

IC50 (PAR2; [1]) [nM] | SMILES | scratching-behavior inhibition rate (ICR mice; solvent 100% ethanol) [%] | also measured
173 | CCCc1cc(C23CC4CC(CC(C4)C2)C3)nc2cc(C(=O)N3CCCCCC3)nn12 [Example 1] | 35 | Scratching behavior inhibition rate (NC/Nga mice; [2]): 76%
31 | CC(C)c1cc(C23CC4CC(CC(C4)C2)C3)nc2cc(C(=O)N3CCCCC3(C)C)nn12 [Example 2] | 46 | 
109 | O=C(c1cc2nc(CC3CCCC3)cc(C(F)(F)F)n2n1)N1CCCCCC1 [Example 4, azepan-1-yl(5-(cyclopentylmethyl)-7-(trifluoromethyl)pyrazolo[1,5-a]pyrimidin-2-yl)methanone] |  | Scratching behavior inhibition rate (NC/Nga mice; assessed concentration 6%, solvent 70% ethanol): 56%
130 | CC1(C)CC(O)CCN1C(=O)c1cc2nc(CC3CCCCC3)cc(C(F)(F)F)n2n1 (centres unmarked) [Example 5] | 36 | 
149 | O=C(c1cc2nc(CCC3CCCC3)cc(C(F)(F)F)n2n1)N1CCCCCC1 [Example 6, azepan-1-yl(5-(2-cyclopentylethyl)-7-(trifluoromethyl)pyrazolo[1,5-a]pyrimidin-2-yl)methanone] |  | Scratching behavior inhibition rate (NC/Nga mice; [2]): 60%
95 | O=C(c1cc2nc(CC3CCCCC3)cc(C3CCCCC3)n2n1)N1CCCCCC1 [Example 8, azepan-1-yl(7-cyclohexyl-5-(cyclohexylmethyl)pyrazolo[1,5-a]pyrimidin-2-yl)methanone] | 30 | Scratching behavior inhibition rate (NC/Nga mice; [2]): 50%
118 | CC(C)c1cc(C2CCCCC2)nc2cc(C(=O)N3CCCCC3(C)C)nn12 [Example 32] | 41 | 
88 | CCC(CC)c1cc(CC2CCCCC2)nc2cc(C(=O)N3CCCCCC3)nn12 [Example 37] | 30 | 
404 | CC1(C)CNCCN1C(=O)c1cc2nc(C34CC5CC(CC(C5)C3)C4)cc(C(F)(F)F)n2n1 [Example 53, [5-(1-adamantyl)-7-(trifluoromethyl)pyrazolo[1,5-a]pyrimidin-2-yl]-(2,2-dimethylpiperazin-1-yl)methanone] |  | scratching-behavior inhibition rate (ICR mice; solvent Acetone/methanol (1:1)): 44%
355 | O=C(c1cc2nc(C3CCCCC3)cc(C(F)(F)F)n2n1)N1CCCCCC1 [Example 54] |  | scratching-behavior inhibition rate (ICR mice; solvent Acetone/methanol (1:1)): 25%
569 | O=C(c1cc2nc(C3CCCC3)cc(C(F)(F)F)n2n1)N1CCCCCC1 [Example 55] |  | scratching-behavior inhibition rate (ICR mice; solvent Acetone/methanol (1:1)): 47%; Scratching behavior inhibition rate (NC/Nga mice; assessed concentration 6%, solvent Acetone/methanol (1:1)): 54%
357 | CC(C)c1cc(C23CC4CC(CC(C4)C2)C3)nc2cc(C(=O)N3CCNCC3(C)C)nn12 [Example 59] |  | scratching-behavior inhibition rate (ICR mice; solvent Acetone/methanol (1:1)): 28%
107 | CC1(C)CCCCN1C(=O)c1cc2nc(C3CCCCC3)cc(C(F)(F)F)n2n1 [Example 65] | 27 | 
51 | CCC(CC)c1cc(CC2CCCC2)nc2cc(C(=O)N3CCC(C)(C)C(=O)C3(C)C)nn12 [Example 70] | 33 | 
115 | CC(C)c1cc(CC2CCCC2)nc2cc(C(=O)N3CCC(C)(C)C(=O)C3(C)C)nn12 [Example 71] | 27 | 
141 | O=C(c1cc2nc(C34CC5CC(CC(C5)C3)C4)cc(C(F)(F)F)n2n1)N1CCCCCC1 [Example 94] |  | scratching-behavior inhibition rate (ICR mice; solvent Acetone/methanol (1:1)): 44%
83 | CC1(C)CCN(C(=O)c2cc3nc(CC4CCCC4)cc(C(F)(F)F)n3n2)C(C)(C)C1=O [Example 105] | 27 | 
228 | CC1(C)CNCCCN1C(=O)c1cc2nc(C34CC5CC(CC(C5)C3)C4)cc(C(F)(F)F)n2n1 [Example 110] |  | scratching-behavior inhibition rate (ICR mice; solvent Acetone/methanol (1:1)): 25%

IC50 (PAR2; [1]) [nM] | SMILES | scratching-behavior inhibition rate (ICR mice; solvent 100% ethanol) [%] | also measured
169 | CC(C)c1cc(CC2CCCC2)nc2cc(C(=O)N3CCCC(O)C3(C)C)nn12 (centres unmarked) [Example 117] | 34 | 
163 | CCc1cc(CC2CCCCCC2)nc2cc(C(=O)N3CCCCCCC3)nn12 [Example 147] |  | 
144 | CCc1cc(CC2CCCCCC2)nc2cc(C(=O)N3CCCCCC3)nn12 [Example 148] |  | 
208 | CCC(C)c1cc(CC2CCCCCC2)nc2cc(C(=O)N3CCCCCC3)nn12 (centres unmarked) [Example 149] |  | 
180 | CC(C)(C)c1cc(CC2CCCC2)nc2cc(C(=O)N3CCCCCCC3)nn12 [Example 150] |  | 
149 | CC(C)c1cc(C2CC23CCCCC3)nc2cc(C(=O)N3CCCCCC3)nn12 (centres unmarked) [Example 151] |  | 
132 | CC(C)c1cc(CC2CCC(C)(C)CC2)nc2cc(C(=O)N3CCCCCC3)nn12 [Example 152] |  | 
282 | CC(C)c1cc(CC2CCC(F)CC2)nc2cc(C(=O)N3CCCCCC3)nn12 (centres unmarked) [Example 153] |  | 
47 | CC(C)c1cc(CC2CC3CCC2C3)nc2cc(C(=O)N3CCCCCC3)nn12 (centres unmarked) [Example 154] |  | 
 | CC(C)c1cc(CC2CCC3CCCCC3C2)nc2cc(C(=O)N3CCCCCC3)nn12 (centres unmarked) [Example 155] |  | IC50 (PAR2; IC50 (nM)): 218 nM
103 | CC(C)c1cc(CC2CCC(C(F)(F)F)CC2)nc2cc(C(=O)N3CCCCCC3)nn12 (centres unmarked) [Example 156] |  | 
319 | CC(C)c1cc(C2CC3CCC2C3)nc2cc(C(=O)N3CCCCCC3)nn12 (centres unmarked) [Example 157] |  | 
117 | CC(C)c1cc(CC2CCCCC2C)nc2cc(C(=O)N3CCCCCC3)nn12 (centres unmarked) [Example 158] |  | 
394 | CC(C)c1cc(C2C3CCCCC32)nc2cc(C(=O)N3CCCCCC3)nn12 (centres unmarked) [Example 159] |  | 
147 | CC(C)c1cc(CC2CC3(CCC3)C2)nc2cc(C(=O)N3CCCCCC3)nn12 [Example 160] |  | 
296 | CC(C)(C)c1cc(CC2CCCCC2)nc2cc(C(=O)N3CCCCC3(C)C)nn12 [Example 161] |  | 
304 | CC1(C)CCCCN1C(=O)c1cc2nc(C3CCCC3)cc(C(F)(F)F)n2n1 [Example 162] |  | 

SMILES | IC50 (PAR2; [1]) [nM] | scratching-behavior inhibition rate (ICR mice; solvent 100% ethanol) [%] | also measured
CCCCc1cc(CC2CCCCC2)nc2cc(C(=O)N3CCCCCC3)nn12 [Example 10] | 178 | 41 | Scratching behavior inhibition rate (NC/Nga mice; [3]): 48%
CCc1cc(CC2CCCC2)nc2cc(C(=O)N3CCCCC3(C)C)nn12 [Example 11] | 252 |  | Scratching behavior inhibition rate (NC/Nga mice; [2]): 80%
CCC(CC)c1cc(CC2CCCC2)nc2cc(C(=O)N3CCCCC3(C)C)nn12 [Example 13] | 69 | 37 | 
CCCc1cc(CC2CCCC2)nc2cc(C(=O)N3CCCCCC3)nn12 [Example 16] | 259 | 47 | 
CC(C)c1cc(CC2CCCC2)nc2cc(C(=O)N3CCSCC3(C)C)nn12 [Example 18] | 36 | 39 | 
CCc1cc(CC2CCCCC2)nc2cc(C(=O)N3CCCCCC3)nn12 [Example 19] | 131 | 42 | Scratching behavior inhibition rate (NC/Nga mice; [3]): 70%
